By IC50 is commonly meant the concentration that gives 50% inhibition.

Test [1] has as its target T1, V600E full-length B-Raf (Homo sapiens, UniProt P15056, V600E).
T1 construct: 1 μM FSBA-MEK and 20 nM V600E full-length B-Raf; made in house; host or cells: Sf9 insect cells (baculovirus)
The test can be described thus: B-Raf IC50 assay (Example A). The class given is biochemical. An excerpt: Determining the activity of Raf in the sample is possible by a number of direct and indirect detection methods (US 2004/0082014). Activity of human recombinant B-Raf protein may be assessed in vitro by assay of the incorporation of radio labeled phosphate to recombinant MAP kinase (MEK), a known physiologic substrate of B-Raf, according to US 2004/0127496 and WO 03/022840. The activity/inhibition of V600E full-length B-Raf was estimated by measuring the incorporation of radio labeled phosphate from [γ-^33P]ATP into FSBA-modified wild-type MEK (see Example A).
Activity of human recombinant B-Raf protein may be assessed in vitro by assay of the incorporation of radio labeled phosphate to recombinant MAP kinase (MEK), a known physiologic substrate of B-Raf, according to US 2004/0127496 and WO 03/022840. Catalytically active human recombinant B-Raf protein is obtained by purification from sf9 insect cells infected with a human B-Raf recombinant baculovirus expression vector.
The activity/inhibition of V600E full-length B-Raf was estimated by measuring the incorporation of radio labeled phosphate from [γ-^33P]ATP into FSBA-modified wild-type MEK. The 30-μL assay mixtures contained 25 mM Na Pipes, pH 7.2, 100 mM KCl, 10 mM MgCl2, 5 mM β-glycerophosphate, […], 4 μM ATP, 500 nCi [γ-^33P]ATP, 1 μM FSBA-MEK and 20 nM V600E full-length B-Raf. Incubations were carried out at 22° C. in a Costar 3365 plate (Corning). Prior to the assay, the B-Raf and FSBA-MEK were preincubated together in assay buffer at 1.5×(20 μL of 30 nM and 1.5 μM, respectively) for 15 minutes, and the assay was initiated by the addition of 10 μL of 10 μM ATP. Following the 60-minute incubation, the assay mixtures were quenched by the addition of 100 μL of 25% TCA, the plate was mixed on a rotary shaker for 1 minute, and the product was captured on a Perkin-Elmer GF/B filter plate using a Tomtec Mach III Harvester. After sealing the bottom of the plate, 35 μL of Bio-Safe II (Research Products International) scintillation cocktail were added to each well and the plate was top-sealed and counted in a Topcount NXT (Packard).

For test [2], the system named is basal ERK1/2 phosphorylation in Malme-3M cells. The test can be described thus: Cellular ERK 1/2 phosphorylation assay (Example A1). It counts as cell-based. The settings on record: Homo sapiens, 1 hour incubation, pERK normalized to total ERK, read-out: P-ERK Malme3-M IC50. The method, then:
Inhibition of basal ERK1/2 phosphorylation was determined by the following in vitro […], which comprises incubating cells with a compound of Formula I for 1 hour and quantifying the fluorescent pERK signal on fixed cells and normalizing to total ERK signal.
Malme-3M cells were obtained from ATCC and grown in RPMI-1640 supplemented with 10% fetal bovine serum. Cells were plated in 96-well plates at 24,000 cells/well and allowed to attach for 16-20 hours at 37° C., 5% CO2. The media was removed, and DMSO-diluted compounds were added in RPMI-1640 at a final concentration of 1% DMSO. The cells were incubated with the compounds for 1 hour at 37° C., 5% CO2. The cells were washed with PBS and fixed in 3.7% formaldehyde in PBS for 15 minutes. This was followed by washing in PBS/0.05% Tween20 and permeabilizing in −20° C. 100% MeOH for 15 minutes. Cells were washed in PBS/0.05% Tween20 then blocked in Odyssey blocking buffer (LI-COR Biosciences) for 1 hour. Antibodies to phosphorylated ERK (1:400, Cell Signaling #9106, monoclonal) and total ERK (1:400, Santa Cruz Biotechnology #sc-94, polyclonal) were added to the cells and incubated 16-20 hours at 4° C. After washing with PBS/0.05% Tween20, the cells were incubated with fluorescently-labeled secondary antibodies (1:1000 goat anti-rabbit IgG-IRDye800, Rockland and 1:500 goat anti-mouse IgG-Alexa Fluor 680, Molecular Probes) for an additional hour. Cells were then washed and analyzed for fluorescence at both wavelengths using the Odyssey Infrared Imaging System (LI-COR Biosciences). Phosphorylated ERK signal was normalized to total ERK signal.

Where [3] appears, read: B-Raf V600E assay of Example A, read-out: IC50.
Where [4] appears, read: [γ-33P]ATP incorporation into FSBA-MEK, 4 μM ATP, read-out: BRAF V600E IC50.

Where two headings read alike, the source gives them in different places.

T1 sequence (P15056 whole entry V600E): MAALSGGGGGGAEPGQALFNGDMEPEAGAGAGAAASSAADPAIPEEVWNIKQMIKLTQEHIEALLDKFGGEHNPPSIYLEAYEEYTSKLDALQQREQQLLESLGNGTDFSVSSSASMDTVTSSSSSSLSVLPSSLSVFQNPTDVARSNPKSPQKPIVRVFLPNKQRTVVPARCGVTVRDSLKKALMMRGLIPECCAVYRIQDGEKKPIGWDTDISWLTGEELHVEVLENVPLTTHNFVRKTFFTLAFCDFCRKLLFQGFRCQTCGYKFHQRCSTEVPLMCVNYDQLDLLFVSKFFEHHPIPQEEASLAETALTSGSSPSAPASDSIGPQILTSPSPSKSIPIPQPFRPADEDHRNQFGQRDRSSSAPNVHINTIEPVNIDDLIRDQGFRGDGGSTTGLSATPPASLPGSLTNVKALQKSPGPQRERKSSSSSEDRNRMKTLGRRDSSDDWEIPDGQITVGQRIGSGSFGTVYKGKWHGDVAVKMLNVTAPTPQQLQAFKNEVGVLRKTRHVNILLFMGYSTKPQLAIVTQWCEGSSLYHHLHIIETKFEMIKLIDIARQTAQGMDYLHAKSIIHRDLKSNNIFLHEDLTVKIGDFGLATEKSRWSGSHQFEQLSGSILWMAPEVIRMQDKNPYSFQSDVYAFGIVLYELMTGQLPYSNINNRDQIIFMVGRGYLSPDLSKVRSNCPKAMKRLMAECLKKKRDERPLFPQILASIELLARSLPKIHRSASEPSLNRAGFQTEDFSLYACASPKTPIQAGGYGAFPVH

For the compound `CCS(=O)(=O)Nc1ccc(F)c(NC(=O)c2cccc3c(N)ncnc23)c1F` [Example 19, 4-Amino-quinazoline-8-carboxylic acid (3-ethanesulfonyl-amino-2,6-difluoro-phenyl)-amide], the IC50 in test [1] (setting [3]) is less than 100 nM; in test [1] (setting [4]), 4.97 nM; in test [2] it was 25.9 nM. As for `O=C(Nc1c(F)ccc(NS(=O)(=O)CCCF)c1F)c1cccc2cncnc12` [Example 55, Quinazoline-8-carboxylic acid [2,6-difluoro-3-(3-fluoro-propane-1-sulfonylamino)-phenyl]-amide], the IC50 in test [1] (setting [3]) is less than 100 nM; in test [1] (setting [4]), 32.2 nM; in test [2] it was 92.8 nM. The matching figures for `CCCS(=O)(=O)Nc1ccc(F)c(NC(=O)c2cccc3cncnc23)c1F` [Example 54, Quinazoline-8-carboxylic acid [2,6-difluoro-3-(propane-1-sulfonylamino)-phenyl]amide]: less than 1000 nM, 119 nM and 526 nM. The matching figures for `CCCS(=O)(=O)Nc1cc(F)c(F)c(NC(=O)c2cccc3c(NN4CCOCC4)ncnc23)c1F` [Example 47, 4-(Morpholin-4-ylamino)-quinazoline-8-carboxylic acid [2,3,6-trifluoro-5-(propane-1-sulfonylamino)-phenyl]-amide]: less than 1000 nM, 105 nM and 1170 nM. Turning to `O=C(Nc1c(Cl)ccc(NS(=O)(=O)CCCF)c1Cl)c1cccc2cncnc12` [Example 57, Quinazoline-8-carboxylic acid [2,6-dichloro-3-(3-fluoro-propane-1-sulfonylamino)-phenyl]-amide], the IC50 in test [1] (setting [3]) is less than 100 nM; in test [1] (setting [4]), 0.96 nM; in test [2], 87.6 nM. The matching figures for `CCCS(=O)(=O)Nc1ccc(F)c(NC(=O)c2ccnc3c(N)ncnc23)c1F` [Example 64, 4-Amino-pyrido[3,2-d]pyrimidine-8-carboxylic acid [2,6-difluoro-3-(propane-1-sulfonylamino)-phenyl]-amide]: less than 100 nM, 3.11 nM and 9.7 nM. The matching figures for `CCCS(=O)(=O)Nc1ccc(Cl)c(NC(=O)c2ccnc3c(N)ncnc23)c1F` [Example 65, 4-Amino-pyrido[3,2-d]pyrimidine-8-carboxylic acid [6-chloro-2-fluoro-3-(propane-1-sulfonylamino)-phenyl]-amide]: less than 100 nM, 1.14 nM and 9.4 nM. With `CCCS(=O)(=O)Nc1ccc(F)c(NC(=O)c2cc(C)cc3c(NC4CCC(F)(F)CC4)ncnc23)c1F` [Example 76, 4-(4,4-Difluoro-cyclohexylamino)-6-methyl-quinazoline-8-carboxylic acid [2,6-difluoro-3-(propane-1-sulfonylamino)-phenyl]-amide], the IC50 in test [1] (setting [4]) was greater than 1000 nM.

Turning to `CCCS(=O)(=O)Nc1cc(F)c(F)c(NC(=O)c2cccc3c(NC)ncnc23)c1F` [Example 50, 4-Methylamino-quinazoline-8-carboxylic acid [2,3,6-trifluoro-5-(propane-1-sulfonylamino)-phenyl]-amide], the IC50 in test [1] (setting [4]) is greater than 1000 nM. `CCCS(=O)(=O)Nc1ccc(F)c(NC(=O)c2cc(C)cc3c(NC4CCCC4)ncnc23)c1F` [Example 71, 4-Cyclopentylamino-6-methyl-quinazoline-8-carboxylic acid [2,6-difluoro-3-(propane-1-sulfonylamino)-phenyl]-amide]: the IC50 in test [1] (setting [4]) is greater than 1000 nM. Consider `CCCS(=O)(=O)Nc1cc(F)c(F)c(NC(=O)c2cccc3c(NC4CC4)ncnc23)c1F` [Example 45, 4-Cyclopropylamino-quinazoline-8-carboxylic acid [2,3,6-trifluoro-5-(propane-1-sulfonylamino)-phenyl]-amide], for which the figures for the IC50 in test [1] (setting [3]) and in test [1] (setting [4]) were less than 1000 nM and 545 nM, respectively.

As for `CCCS(=O)(=O)Nc1cc(F)c(F)c(NC(=O)c2cccc3c(NC4CCCCC4)ncnc23)c1F` [Example 41, 4-Cyclohexylamino-quinazoline-8-carboxylic acid [2,3,6-trifluoro-5-(propane-1-sulfonylamino)-phenyl]-amide], the IC50 in test [1] (setting [4]) was greater than 1000 nM.

Regarding `CCCS(=O)(=O)Nc1cc(F)c(F)c(NC(=O)c2cccc3c(Nc4ccn(C)n4)ncnc23)c1F` [Example 48, 4-(1-Methyl-1H-pyrazol-3-ylamino)-N-(2,3,6-trifluoro-5-(propylsulfonamido)phenyl)quinazoline-8-carboxamide], the IC50 in test [1] (setting [4]) is greater than 1000 nM. The same measure, in the same setting: as for `CCCS(=O)(=O)Nc1ccc(F)c(NC(=O)c2cc(C)cc3c(NC4CCOCC4)ncnc23)c1F` [Example 74, 6-Methyl-4-(tetrahydro-pyran-4-ylamino)-quinazoline-8-carboxylic acid [2,6-difluoro-3-(propane-1-sulfonylamino)-phenyl]-amide], the figure is greater than 1000 nM; as for `CCCS(=O)(=O)Nc1cc(F)c(F)c(NC(=O)c2cccc3c(NC4CCNCC4)ncnc23)c1F` [Example 44, 4-(Piperidin-4-ylamino)-quinazoline-8-carboxylic acid [2,3,6-trifluoro-5-(propane-1-sulfonylamino)-phenyl]-amide], greater than 1000 nM. With `CCCS(=O)(=O)Nc1ccc(F)c(NC(=O)c2cc(C)cc3c(NC4CCC4)ncnc23)c1F` [Example 75, 4-Cyclobutylamino-6-methyl-quinazoline-8-carboxylic acid [2,6-difluoro-3-(propane-1-sulfonylamino)-phenyl]-amide], in test [1] (setting [4]), the IC50 is greater than 1000 nM.

Consider `CCCS(=O)(=O)Nc1cc(F)c(F)c(NC(=O)c2cccc3c(NC4CCOCC4)ncnc23)c1F` [Example 42, 4-(Tetrahydropyran-4-ylamino)-quinazoline-8-carboxylic acid [2,3,6-trifluoro-5-(propane-1-sulfonylamino)-phenyl]-amide], for which the IC50 in test [1] (setting [4]) was greater than 1000 nM.

Turning to `CCCS(=O)(=O)Nc1ccc(F)c(NC(=O)c2cc(C)cc3c(NC4CC4)ncnc23)c1F` [Example 73, 4-Cyclopropylamino-6-methyl-quinazoline-8-carboxylic acid [2,6-difluoro-3-(propane-1-sulfonylamino)-phenyl]-amide], the IC50 in test [1] (setting [3]) was less than 1000 nM; in test [1] (setting [4]) it was 879 nM. As for `CCCS(=O)(=O)Nc1cc(F)c(F)c(NC(=O)c2cccc3c(NC4CCC(F)(F)CC4)ncnc23)c1F` [Example 46, 4-(4,4-Difluoro-cyclohexylamino)-quinazoline-8-carboxylic acid [2,3,6-trifluoro-5-(propane-1-sulfonylamino)-phenyl]-amide], the IC50 in test [1] (setting [4]) was greater than 1000 nM.

For `O=C(Nc1c(F)ccc(NS(=O)(=O)CC2CC2)c1F)c1cccc2c(NC3CC3)ncnc12` [Example 53, 4-Cyclopropylamino-quinazoline-8-carboxylic acid (3-cyclopropylmethanesulfonylamino-2,6-difluoro-phenyl)-amide], the results for the IC50 in test [1] (setting [3]) and in test [1] (setting [4]) were less than 1000 nM and 976 nM, respectively. Consider `CCCS(=O)(=O)Nc1cc(F)c(F)c(NC(=O)c2cccc3c(NCC)ncnc23)c1F` [Example 49, 4-Ethylamino-quinazoline-8-carboxylic acid [2,3,6-trifluoro-5-(propane-1-sulfonylamino)-phenyl]-amide], for which the IC50 in test [1] (setting [3]) is less than 1000 nM; in test [1] (setting [4]), 737 nM.

The values above are taken from US20130018033A1, “RAF INHIBITOR COMPOUNDS AND METHODS OF USE THEREOF” (ARRAY BIOPHARMA INC., priority 2009, published 2013).
